This is an account of results in patent US7396836B2, “Pyrimidine compound and medicinal composition thereof” (Eisai R&D Management Co., Ltd., priority 2001, dated 2008).

One may read the Ki as a measure of affinity in units of concentration, obtained from inhibition or displacement. Lower therefore signals tighter binding. As a reminder, the IC50 is the midpoint of a concentration-inhibition curve. A lower IC50 goes with greater potency in that assay.

Each structure is given as a SMILES string.

For one experiment, the system named is SD IGS rats. Kind of experiment: Evaluation of defecation-promoting action. It counts as in vivo, rat. As to conditions: 3 mg/kg oral, 90 minutes after administration, per cage (3 animals/cage). The text has this: Evaluation of Defecation-Promoting Action
The defecation-promoting action of the adenosine A2B receptor-inhibiting compound which was identified by measuring the binding affinity or antagonistic activity thereof to the adenosine receptor in Test Examples 1 to 3, a salt thereof, a solvate of them, or a pharmaceutical composition containing it can be evaluated on the basis of the following method. That is, SD IGS rats (6 weeks-old, from Charles River) were placed in cages (3 animals/cage) and preliminarily allowed food and water ad libitum and raised for 1 week. Then, a tared water-absorbing sheet was placed below each cage, and the animals were fasted but allowed water ad libitum throughout the experiment. After 1.5 hours, the fecal pellets were collected from each cage and observed for abnormality before the experiment. The compound suspended or dissolved in 0.5% (w/v) methyl cellulose (MC) was orally administered in a volume of 5 ml/kg. On one hand, 0.5% (w/v) MC only was orally given to the control group. After administration of the compound, the rats were returned to the cage provided with a new water-absorbing sheet, and 90 minutes after the administration, the fecal pellets on the water-absorbing sheet were collected from each cage, and the external appearance was observed, and then counted and weighed. The number of fecal pellets is expressed per each cage.

Experiment [1] addresses T1, human adenosine A1 receptor (Homo sapiens, UniProt P30542).
T1 construct: expressed in transfected cells; host or cells: CHOK1 cells (membrane sample)
T1 sequence (P30542 1-326): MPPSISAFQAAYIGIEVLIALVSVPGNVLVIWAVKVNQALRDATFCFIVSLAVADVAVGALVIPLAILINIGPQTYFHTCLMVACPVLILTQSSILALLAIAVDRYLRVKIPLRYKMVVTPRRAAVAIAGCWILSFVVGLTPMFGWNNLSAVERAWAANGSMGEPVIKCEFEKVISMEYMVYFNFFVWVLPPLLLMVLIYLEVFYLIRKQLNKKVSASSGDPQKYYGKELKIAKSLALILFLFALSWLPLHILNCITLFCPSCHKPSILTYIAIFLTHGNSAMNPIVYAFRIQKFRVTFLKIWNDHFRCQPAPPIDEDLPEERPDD
The experiment can be described thus: Binding affinity to adenosine A1 receptor (3H-CCPA displacement). Conditions: membranes of CHOK1 cells expressing human A1 receptor, Cheng-Prusoff. How it is done: Measurement of the binding affinity to adenosine A1 receptor
A human adenosine A1 receptor cDNA was expressed in excess in CHOK1 cells, and this membrane sample was suspended at a protein concentration of 66.7 μg/ml in 20 mM HEPES buffer, pH 7.4 (10 mM MgCl2, 100 mM NaCl). To 0.45 ml of this membrane sample suspension were added 0.025 ml of 60 nM tritium-labeled chlorocyclopentyl adenosine (^3H-CCPA, from NEN Ltd.) and 0.025 ml of test compound. This mixture was left at 30° C. for 120 minutes, filtered rapidly under suction through a glass fiber filter (GF/B, from Whatman), and immediately washed twice with 5 ml of 50 mM water-cooled Tris-HCl buffer. Thereafter, the glass fiber filter was transferred to a vial, scintillator was added thereto, and the radioactivity on the filter was measured by a liquid scintillation counter. The inhibition of binding of ^3H-CCPA to A1 receptor by the test compound was determined using the following formula, and from this value, 50% inhibition concentration (IC50) was calculated. Inhibition (%)=[1-{(binding in the presence of the test compound-nonspecific binding)/(total binding-nonspecific binding)}]×100
In the above formula, the total binding means ^3H-CCPA-bound radioactivity in the absence of the test compound; the nonspecific binding means ^3H-CCPA-bound radioactivity in the presence of 100 μM CPA ([…]); and the binding in the presence of the test compound means ^3H-CCPA-bound radioactivity in the presence of the test compound at predetermined concentrations. The inhibition constant (Ki value) in the table was determined from the formula of Cheng-Prusoff.

For another experiment, the target named is T2, adenosine A2A receptor (Homo sapiens, UniProt P29274).
T2 construct: purchased Receptor Biology Inc
T2 sequence (P29274 whole entry): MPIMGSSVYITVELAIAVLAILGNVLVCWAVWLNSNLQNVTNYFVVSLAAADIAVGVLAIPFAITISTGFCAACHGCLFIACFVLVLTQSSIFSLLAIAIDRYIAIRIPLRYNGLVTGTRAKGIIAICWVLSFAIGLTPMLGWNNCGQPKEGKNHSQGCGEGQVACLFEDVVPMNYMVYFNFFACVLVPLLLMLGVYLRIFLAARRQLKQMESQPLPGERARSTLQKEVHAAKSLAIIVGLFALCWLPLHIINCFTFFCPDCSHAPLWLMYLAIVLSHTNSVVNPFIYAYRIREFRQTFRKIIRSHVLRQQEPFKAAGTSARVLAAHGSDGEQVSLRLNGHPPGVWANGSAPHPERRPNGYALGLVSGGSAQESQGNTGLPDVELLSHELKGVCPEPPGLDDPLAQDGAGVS
The experiment can be described thus: Binding ability to adenosine A2A receptor (3H-CGS21680 displacement). Conditions: A2A receptor membrane sample, Cheng-Prusoff. How it is done:
Measurement of the Binding Ability to Adenosine A2A Receptor
An experiment of inhibition of binding to adenosine A2A receptor was conducted using a membrane sample (Receptor Biology Inc.) where an adenosine A2A receptor cDNA was expressed in excess. This membrane sample was suspended at a protein concentration of 22.2 μg/ml in 20 mM HEPES buffer, pH 7.4 (10 mM MgCl2 and 100 mM NaCl). To 0.45 ml of this membrane sample suspension were added 0.025 ml of 500 nM tritium-labeled 2-p-[2-carboxyethyl]phenetylamino-5′-N-ethylarboxyamide adenosine (^3H-CGS21680, from NEN) and 0.025 ml of test compound. This mixture was left at 25° C. for 90 minutes, filtered rapidly under suction through a glass fiber filter (GF/B, from Whatman), and immediately washed twice with 5 ml of 50 mM ice-cooled Tris-HCl buffer. Thereafter, the glass fiber filter was transferred to a vial, scintillator was added thereto, and the radioactivity on the filter was measured by a liquid scintillation counter. The inhibition of binding of ^3H-CGS21680 to A2A receptor by the test compound was determined using the following formula, and from this inhibition, 50% inhibition concentration (IC50) was calculated. Inhibition (%)=[1−{[(binding in the presence of the test compound)−(nonspecific binding)]/[(total binding)−(nonspecific binding)]}]×100
Here, the total binding means ^3H-CGS21680-bound radioactivity in the absence of the test compound; the nonspecific binding means ^3H-CGS21680-bound radioactivity in the presence of 100 μM RPIA; and the binding in the presence of the test compound means ^3H-CGS21680-bound radioactivity in the presence of the test compound at predetermined concentrations. The inhibition constant (Ki value) in the table was determined from the formula of Cheng-Prusoff.

For experiment [2], the target named is T3, human adenosine A2B receptor (Homo sapiens, UniProt P29275).
T3 construct: expressed in transfected cells; host or cells: CHOK1 cells
T3 sequence (P29275 1-332): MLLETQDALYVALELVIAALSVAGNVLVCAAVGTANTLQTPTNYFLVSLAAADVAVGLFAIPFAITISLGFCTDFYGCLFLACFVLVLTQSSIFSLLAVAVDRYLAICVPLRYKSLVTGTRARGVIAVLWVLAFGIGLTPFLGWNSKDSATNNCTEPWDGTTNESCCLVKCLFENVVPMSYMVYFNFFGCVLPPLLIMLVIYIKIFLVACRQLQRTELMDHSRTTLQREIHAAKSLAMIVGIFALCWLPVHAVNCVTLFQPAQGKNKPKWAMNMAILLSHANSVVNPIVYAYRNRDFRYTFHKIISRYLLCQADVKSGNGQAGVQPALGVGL
The experiment can be described thus: Inhibition of NECA-stimulated production of cAMP in adenosine A2B receptor-expressing CHOK1 cells. It counts as cell-based. Conditions: cAMP stimulated by 30 nM NECA. Here is the method: Experiment of Inhibition of NECA-stimulated Production of cAMP in Adenosine A2B Receptor-expressing Cells
CHOK1 cells where human adenosine A2B receptor had been expressed in excess were plated onto a 24-well plate at a density of 1.5×10^5 cells/well, cultured overnight, and used in the experiment. The degree of inhibitory effect of the test compound on the amount of cAMP produced by stimulation with 30 nM 5′-N-ethylcarboxyamide adenosine (NECA from Sigma) was evaluated in terms of affinity for A2B receptor. That is, the adhering cells were washed twice with 2 ml/well Krebs-Ringer buffer solution (containing 0.1% BSA; pH 7.4) and pre-incubated for 30 minutes in a volume of 0.5 ml/well. Then, a mixed solution containing NECA and the test compound was added in a volume of 0.1 ml/well in the presence of a phosphodiesterase inhibitor Ro-20-1724 (a product of RBI). After pre-incubation for 15 minutes, the reaction was terminated with 0.1 N HCl in a volume of 300 μl/well. Measurement of intracellular cAMP was carried out using a cAMP enzyme immunoassay kit produced by Amersham. The inhibition of NECA-stimulated production of cAMP by the test compound was determined using the following equation: Inhibition (%)=[1−{(amount of cAMP in the coexistence of NECA and the test compound-amount of cAMP in only the Krebs-Ringer buffer solution)/(amount of cAMP upon stimulation with NECA only-amount of cAMP in only the Krebs-Ringer buffer solution)}]×100

Experiment [3] concerns haloperidol-induced catalepsy. Kind of experiment: Evaluation of effects on haloperidol-induced catalepsy. The class given is in vivo, mouse. As to conditions: ICR mice, haloperidol 1 mg/kg i.p., 1 hour after administration, score 0-5. An excerpt: Evaluation of Effects on Haloperidol-induced Catalepsy Parkinson's disease is a disease caused by the degeneration or cell death of nigrostriatal dopaminergic neurons. The administration of haloperidol (dopamine D1/D2 receptor antagonist) blocks postsynaptic D2 receptors to induce catalepsy. The haloperidol-induced catalepsy has been known as a classic model that mimics Parkinson's disease by drug administration (Eur. J. Pharmacol., 182, 327-334(1990)). The adenosine A2A receptor antagonist compounds identified by measuring on their binding abilities to the receptors in Test Examples 1 to 3, the salts thereof, solvates of them, or pharmaceutical compositions containing those were evaluated for effect on haloperidol-induced catalepsy by the method described below. That is, the experiment was conducted by eight 5-week-old male ICR mice (available from Charles River) per group. Haloperidol (manufactured by Sigma Co., Ltd.) was dissolved in a 6.1% tartaric acid solution and the resulting solution in a dose of 1 mg/kg was then intraperitoneally administered to the mice. The test compound was used as a 0.5% MC suspension. 1.5 hours after the intraperitoneal administration of haloperidol, each of the suspension with the test compound and the suspension without the test compound (control) was orally administered to the mice (0.1 ml per 10 g of mouse body weight). 1 hour after the administration of the test compound, the degree of catalepsy was measured with respect to each of the mice such that a pair of only forelimbs and a pair of only hindlimbs of each mouse were placed by turns on a stand 4.5 cm in height and 10 cm in width. […] Catalepsy scores and criterions are as follows. […] The effects of the compound were determined by making a comparison between the score of the control group and the score of the test group in which the test compound was administered. A significant difference was analyzed by Dunnett's-test.

As for `C=CCn1cc(-c2cnc(N)nc2-c2ccco2)ccc1=O` [Example 18, 1-Allyl-5-[2-amino-4-(2-furyl)-5-pyrimidinyl]-1,2-dihydro-2-pyridinone], in the experiment on SD IGS rats, the “Number of fecal pellets Mean ± S.E.” value stood at 14.50 ± 1.26. The Ki is 114 nM in experiment [1] and 2 nM on adenosine A2A receptor. Also, in experiment [2], 26 nM corresponded to half-maximal inhibition (IC50).

For `CCn1cc(-c2cnc(N)nc2-c2ccco2)ccc1=O` [Example 17, 5-[2-Amino-4-(2-furyl)-5-pyrimidinyl]-1-ethyl-1,2-dihydro-2-pyridinone], in the experiment on SD IGS rats, the “Number of fecal pellets Mean ± S.E.” value was found to be 15.50 ± 3.18. The Ki is 289 nM in experiment [1] and 3 nM at adenosine A2A receptor. In experiment [2], this compound had an IC50 of 25 nM. Moreover, the “Catalepsy score (Mean ± S.E.)” value in experiment [3] (test compound 0.1 mg/kg oral) amounted to 3.38 ± 0.53; in experiment [3] (test compound 1.0 mg/kg oral), 1.13 ± 0.67.

As to `Cn1cc(-c2cnc(N)nc2-c2ccco2)ccc1=O` [Example 16, 5-[2-Amino-4-(2-furyl)-5-pyrimidinyl]-1-methyl-1,2-dihydro-2-pyridinone], the “Number of fecal pellets Mean ± S.E.” value in the experiment on SD IGS rats is 12.50 ± 0.96. Besides, the Ki stood at 175 nM in experiment [1] and 6 nM on adenosine A2A receptor. The IC50 in experiment [2] was 29 nM. Also, the “Catalepsy score (Mean ± S.E.)” value in experiment [3] (test compound 0.1 mg/kg oral) was 4.63 ± 0.38; in experiment [3] (test compound 1.0 mg/kg oral), 0.88 ± 0.64.
